Results: patent US7138361B2, “Herbicidal heterocycles” (E. I. du Pont de Nemours and Company, priority 2000, dated 2006)

Tests used:
Experiment in all cases: Test C preemergence
Assay type in all cases: in vivo
Sunflower [1] = conditions: Rate 250 g/ha, scale 0 to 100, 0 no effect, 100 complete control
[2] = test system: velvetleaf (Abutilon theophrasti)
Method in brief: (§1)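 Pre- and postemergence treatments used a non-phytotoxic solvent/surfactant formulation; post-treated plants measured 2 to 18 cm. Greenhouse hold 12–14 d; % control estimated visually relative to controls.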

[3] = test system: cocklebur (Xanthium strumarium)
Method in brief: as §1

[4] = test system: giant foxtail (Setaria faberii)
Method in brief: as §1

[5] = test system: goosegrass (Eleusine indica)
Method in brief: as §1

[6] = test system: johnsongrass (Sorghum halepense)
Method in brief: as §1

[7] = test system: Surinam grass (Brachiaria decumbens)
Method in brief: as §1

[8] = test system: yellow nutsedge (Cyperus esculentus)
Method in brief: as §1

Sunflower [9] = conditions: Rate 125 g/ha; scale 0 to 100, 0 no effect, 100 complete control
[10] = test system: bermudagrass (Cynodon dactylon)
Method in brief: as §1

kochia (Kochia scoparia) = test system: kochia (Kochia scoparia)
Method in brief: as §1

[11] = test system: pigweed (Amaranthus retroflexus)
Method in brief: as §1

corn (Zea mays) = test system: corn (Zea mays)
Method in brief: as §1

soybean (Glycine max) = test system: soybean (Glycine max)
Method in brief: as §1

Nightshade = test system: Nightshade
[12] = test system: woolly cupgrass (Eriochloa villosa)
Method in brief: as §1

[13] = test system: crabgrass (Digitaria sanguinalis)
Method in brief: as §1

[14] = test system: morningglory (Ipomoea hederacea)
Method in brief: as §1

[15] = test system: lambsquarters (Chenopodium album)
Method in brief: as §1

[16] = test system: common ragweed (Ambrosia elatior)
Method in brief: as §1

[17] = Rate 125 g/ha, scale 0 to 100, 0 no effect, 100 complete control
[18] = preemergence, Rate 62 g/ha, scale 0 to 100
[19] = preemergence, Rate 500 g/ha, visual evaluation after 12 to 14 days
[20] = preemergence, Rate 250 g/ha, scale 0 to 100, 0 no effect, 100 complete control

## CCCC(C)c1ccn(C2CCN(c3ccc(Cl)c(OC)c3)C2=O)n1 (stereo not shown) [Compound 121]
Sunflower [1]
  Plant response rating, Sunflower: 50
[2]; [17]
  Plant response rating, Velvetleaf: 20
[2]; [18]
  Plant response rating, Velvetleaf: 0
[2]; [19]
  Plant response rating (0 to 100), Velvetleaf: 100
[2]; [20]
  Plant response rating, Velvetleaf: 100
[3]; [17]
  Plant response rating, Cocklebur: 20
[3]; [18]
  Plant response rating, Cocklebur: 0
[3]; [19]
  Plant response rating (0 to 100), Cocklebur: 100
[3]; [20]
  Plant response rating, Cocklebur: 50
[4]; [17]
  Plant response rating, Foxtail, Giant: 100
[4]; [18]
  Plant response rating, Foxtail, Giant: 20
[4]; [19]
  Plant response rating (0 to 100), Foxtail, Giant: 100
[4]; [20]
  Plant response rating, Foxtail, Giant: 60
[5]; [17]
  Plant response rating, Goosegrass: 100
[5]; [18]
  Plant response rating, Goosegrass: 100
[5]; [19]
  Plant response rating (0 to 100), Goosegrass: 100
[5]; [20]
  Plant response rating, Goosegrass: 100
[6]; [17]
  Plant response rating, Johnsongrass: 90
[6]; [18]
  Plant response rating, Johnsongrass: 60
[6]; [19]
  Plant response rating (0 to 100), Johnsongrass: 100
[6]; [20]
  Plant response rating, Johnsongrass: 100
[7]; [17]
  Plant response rating, Surinam grass: 80
[7]; [18]
  Plant response rating, Surinam grass: 20
[7]; [19]
  Plant response rating (0 to 100), Surinam grass: 100
[7]; [20]
  Plant response rating, Surinam grass: 100
[8]; [17]
  Plant response rating, Nutsedge: 0
[8]; [18]
  Plant response rating, Nutsedge: 0
[8]; [19]
  Plant response rating (0 to 100), Nutsedge: 0
[8]; [20]
  Plant response rating, Nutsedge: 0
Sunflower [9]
  Plant response rating, Sunflower: 30
[10]; [17]
  Plant response rating, Bermudagrass: 100
[10]; [18]
  Plant response rating, Bermudagrass: 100
[10]; [19]
  Plant response rating (0 to 100 where 0 is no effect and 100 is complete control), Bermudagrass: 100
[10]; [20]
  Plant response rating, Bermudagrass: 100
Kochia (Kochia scoparia); [17]
  Plant response rating, Kochia: 100
Kochia (Kochia scoparia); [18]
  Plant response rating, Kochia: 100
Kochia (Kochia scoparia); [19]
  Plant response rating (0 to 100), Kochia: 100
Kochia (Kochia scoparia); [20]
  Plant response rating, Kochia: 100
[11]; [17]
  Plant response rating, Pigweed: 50
[11]; [18]
  Plant response rating, Pigweed: 20
[11]; [19]
  Plant response rating (0 to 100), Pigweed: 100
[11]; [20]
  Plant response rating, Pigweed: 60
Corn (Zea mays); [17]
  Plant response rating, Corn: 20
Corn (Zea mays); [18]
  Plant response rating, Corn: 0
Corn (Zea mays); [19]
  Plant response rating (0 to 100), Corn: 90
Corn (Zea mays); [20]
  Plant response rating, Corn: 70
Soybean (Glycine max); [17]
  Plant response rating, Soybean: 60
Soybean (Glycine max); [18]
  Plant response rating, Soybean: 0
Soybean (Glycine max); [19]
  Plant response rating (0 to 100), Soybean: 100
Soybean (Glycine max); [20]
  Plant response rating, Soybean: 90
Nightshade; Rate 62 g/ha, scale 0 to 100
  Plant response rating, Nightshade: 10
Nightshade; [17]
  Plant response rating, Nightshade: 90
Nightshade; Rate 250 g/ha, scale 0 to 100, 0 no effect, 100 complete control
  Plant response rating, Nightshade: 100
[12]; [17]
  Plant response rating, Cupgrass, Woolly: 100
[12]; [18]
  Plant response rating, Cupgrass, Woolly: 80
[12]; [19]
  Plant response rating (0 to 100), Cupgrass, Woolly: 100
[12]; [20]
  Plant response rating, Cupgrass, Woolly: 100
[13]; [17]
  Plant response rating, Crabgrass: 100
[13]; [18]
  Plant response rating, Crabgrass: 100
[13]; [19]
  Plant response rating (0 to 100), Crabgrass: 100
[13]; [20]
  Plant response rating, Crabgrass: 100
[14]; [17]
  Plant response rating, Morningglory: 10
[14]; [18]
  Plant response rating, Morningglory: 0
[14]; [19]
  Plant response rating (0 to 100), Morningglory: 70
[14]; [20]
  Plant response rating, Morningglory: 50
[15]; [17]
  Plant response rating, Lambsquarters: 100
[15]; [18]
  Plant response rating, Lambsquarters: 100
[15]; [19]
  Plant response rating (0 to 100), Lambsquarters: 100
[15]; [20]
  Plant response rating, Lambsquarters: 100
[16]; [17]
  Plant response rating, Ragweed, Common: 90
[16]; [18]
  Plant response rating, Ragweed, Common: 0
[16]; [19]
  Plant response rating (0 to 100), Ragweed, Common: 100
[16]; [20]
  Plant response rating, Ragweed, Common: 90
